Patent US7731992B2, “Method of inhibiting aromatase with specific dietary supplements” (Triarco Industries, Inc., priority 2003, dated 2010)
Where “and” joins values, the source holds several entries; their conditions need not be identical. Equal values may be shown once. Read-outs that look alike come from different tables or passages of the source.

Legend:
[1] = assay type: physicochemical
Protocol: The test solutions were prepared by adding the test substances to separate aliquots of dimethyl sulfoxide (DMSO). The target concentration of each test substance was 50 mg/ml. […] Mild heat and sonication were applied to aid in obtaining solutions of the other substances at the desired concentration. The black cohosh powder and echinacea were also centrifuged prior to the use of the supernatant in the assay to sediment any particulate matter present in the solutions.
None were successful. […] Insoluble material that would not sediment when centrifuged was still present at 2 mg/ml, forming a thin, whitish layer on the surface of the solution. This particulate material was avoided when sampling the sterol solution for the assay.

human aromatase (CYP19) = biological target: T1, human aromatase (CYP19) (Homo sapiens, UniProt P11511); assay: Inhibition of CYP19-catalyzed dealkylation of DBF (fluorescence, 96 well plates); assay type: biochemical
T1 construct: purchased Gentest P260; host or cells: baculovirus-infected insect cells (microsomes)
T1 sequence (P11511 1-503): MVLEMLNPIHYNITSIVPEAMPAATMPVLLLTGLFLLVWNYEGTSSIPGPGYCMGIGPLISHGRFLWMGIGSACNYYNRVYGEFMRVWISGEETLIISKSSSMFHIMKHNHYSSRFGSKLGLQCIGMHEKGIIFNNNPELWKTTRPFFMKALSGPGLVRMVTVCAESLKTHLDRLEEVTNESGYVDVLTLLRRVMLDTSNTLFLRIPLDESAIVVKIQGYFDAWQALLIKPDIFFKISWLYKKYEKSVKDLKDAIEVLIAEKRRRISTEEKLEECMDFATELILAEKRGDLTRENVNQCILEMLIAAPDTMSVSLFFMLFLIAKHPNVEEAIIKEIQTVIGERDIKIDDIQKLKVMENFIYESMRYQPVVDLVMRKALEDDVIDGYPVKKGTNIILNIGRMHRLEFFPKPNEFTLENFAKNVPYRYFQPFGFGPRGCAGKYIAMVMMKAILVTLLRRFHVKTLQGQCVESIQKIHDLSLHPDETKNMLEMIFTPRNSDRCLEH
Protocol: The inhibition of aromatase activity was measured in 96 well plates with cDNA-derived enzymes in microsomes prepared from baculovirus-infected insect cells. Dibenzylfluorescien (DBF) was used as a reporter substrate for the activity of the aromatase enzyme.
In the inhibition study, the 50 percent inhibitory concentration (IC50) for each substance was determined with the enzyme. A single concentration of DBF, below the apparent Km, and multiple test substance concentrations, separated by approximately ½ log, were tested in duplicate. Metabolism of the model substrate was assayed by the production of fluorescein metabolite, which was detected and measured using fluorescence.
The amount of solvent during the assay incubations was the same for all test substance concentrations.
As noted above, the assay was conducted in 96 well microplates. Initially, solutions of the substrate in acetonitrite at a concentration equal to the km were prepared. The inhibition of the CYP19-catalyzed dealkylation of DBF was determined, using 4-hydroxyandrostenedione, a known inhibitor of CYP19, as a positive control, and sulfaphenazone, as a negative control. The final concentration of CYP19 (Gentest catalog number P260) was 0.4 pmol/well, and the final concentration of microsomal protein was normalized to 0.25 mg/ml by the addition of the insect cell control protein. The final concentration of substrate was 0.2 μM, and the final concentration of the potassium phosphate buffer was 50 μM. The incubation time was 30 minutes.
A row of 12 wells was used in each test, and each test of a test substance/substrate combination was duplicated in a second row. In each test, wells 1 to 8 contained serial 1:3 dilutions of the inhibitors in which the maximum concentration of phytosterols was 10 μg/ml, and that of the other test substances was 250 μg/ml, assuming complete solubilization at the desired concentrations, i.e., 2 mg/ml for the phytosterols and 50 mg/ml for the other test substances. Wells 9 and 10 contained no inhibitor, and wells 11 and 12 were blanks in which stop solution was added before the enzyme to test for background fluorescence.
The plates were then warmed to 37° C., and incubation was initiated by the addition of the pre-warmed enzyme, additional insect cell control protein in an amount sufficient to provide the desired concentration, and substrate. The final cofactor concentrations were 1.3 μM NADP, 3.3 μM glucose-6-phosphate, and 0.4 U/ml glucose-6-phosphate dehydrogenase. The incubation reactions were stopped after 30 minutes by the addition of 0.075 ml of 2 N NaOH, and fluorescence was measured for each well using a FLUOstar model 403 plate scanner after a post-stop incubation period of about 4 hours. The DBF metabolite fluorescein was measured using an excitation wavelength of about 485 nm and an emission wavelength of about 538 nm.

For Phytosterols, the “Solubility in DMSO (in words)” value [1] was “little or no solubility in DMSO”.
C[C@]12CCC(=O)C(O)=C1CC[C@@H]1[C@@H]2CC[C@]2(C)C(=O)CC[C@@H]12 [4-Hydroxandrostendione, 4-hydroxyandrostenedione, reference compound] showed an IC50 (human aromatase (CYP19)) of 11 nM.
For Nc1ccc(S(=O)(=O)Nc2ccnn2-c2ccccc2)cc1 [Sulfaphenazole, reference compound], the IC50 (human aromatase (CYP19); positive and negative control, DBF 0.2 μM, 30 min, duplicate determinations, read-out: IC50 CYP19/DBF (controls)) was over 10000 nM.
In the case of Astaxanthin, the “Solubility in DMSO (in words)” value [1] is reported as “dissolve completely”, the “IC50 CYP19/DBF” value (human aromatase (CYP19); cDNA-derived enzyme in microsomes from baculovirus-infected insect cells, DBF 0.2 μM, 30 min, duplicate determinations, concentration assumes complete solubilization) is reported as 67 µg/mL and 66 µg/mL and the “Inhibition of aromatase activity (in words)” value (human aromatase (CYP19); summary statement on Table 2) is reported as “most significant inhibition”.
